Measurements from the supplement of paper PMC10883282.

Key:
Experiment in all cases: relative viability vs DMSO control (72 h) (fraction); higher = more viable cells
SW1353 = tested on: SW1353
Outline: (§1)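 A 5 µM positive control and 0.1% DMSO vehicle ran alongside sarcoma cell lines seeded in 384-well plates to reach 80–90% confluence. Serially diluted compound, 2.5 µl from source plates of 10 mM to 0.0002 mM, was added after 24 h, and the plates were held 72 h at 37 °C, 5% CO2. Relative viability was worked out from ATPLite readings as percent growth averaged over up to triplicate wells. The values were rescaled so that 1 is full and 0 is none.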

SW684 = tested on: SW684
Outline: as §1

HT1080 = tested on: HT1080
Outline: as §1

HS729 = tested on: HS729
Outline: as §1

G401 = tested on: G401
Outline: as §1

SYO-1 = tested on: SYO-1
Outline: as §1

SK-LMS-1 = tested on: SK-LMS-1
Outline: as §1

KHOS-NP = tested on: KHOS-NP
Outline: as §1

RD = tested on: RD
Outline: as §1

SW872 = tested on: SW872
Outline: as §1

RD-ES = tested on: RD-ES
Outline: as §1

KHOS-240S = tested on: KHOS-240S
Outline: as §1

Cc1cc(F)c(C(=O)Nc2cccc(-c3nncn3C(C)C)n2)cc1-n1cnc(C2CC2)c1 [Selonsertib]
Conditions	relative viability
G401, 0.00017 µM	1.02
G401, 0.00051 µM	0.988
G401, 0.00152 µM	1.01
G401, 0.00457 µM	1.01
G401, 0.01372 µM	0.995
G401, 0.04115 µM	1.04
G401, 0.1235 µM	1.01
G401, 0.3704 µM	0.994
G401, 1.111 µM	0.979
G401, 3.333 µM	0.882
G401, 10 µM	0.684
HS729, 0.00017 µM	0.914
HS729, 0.00051 µM	0.917
HS729, 0.00152 µM	0.92
HS729, 0.00457 µM	0.973
HS729, 0.01372 µM	0.936
HS729, 0.04115 µM	0.942
HS729, 0.1235 µM	0.888
HS729, 0.3704 µM	0.933
HS729, 1.111 µM	0.875
HS729, 3.333 µM	0.94
HS729, 10 µM	0.943
HT1080, 0.00017 µM	1.01
HT1080, 0.00051 µM	1.04
HT1080, 0.00152 µM	1.04
HT1080, 0.00457 µM	1.04
HT1080, 0.01372 µM	1.05
HT1080, 0.04115 µM	1.04
HT1080, 0.1235 µM	1.04
HT1080, 0.3704 µM	1.03
HT1080, 1.111 µM	1.08
HT1080, 3.333 µM	1.09
HT1080, 10 µM	1.081
KHOS-240S, 0.00017 µM	1.05
KHOS-240S, 0.00051 µM	1.07
KHOS-240S, 0.00152 µM	1.04
KHOS-240S, 0.00457 µM	1.06
KHOS-240S, 0.01372 µM	1.07
KHOS-240S, 0.04115 µM	1.06
KHOS-240S, 0.1235 µM	1.07
KHOS-240S, 0.3704 µM	1.06
KHOS-240S, 1.111 µM	1.03
KHOS-240S, 3.333 µM	0.983
KHOS-240S, 10 µM	0.736
KHOS-NP, 0.00017 µM	1.04
KHOS-NP, 0.00051 µM	1.05
KHOS-NP, 0.00152 µM	1.042
KHOS-NP, 0.00457 µM	1.06
KHOS-NP, 0.01372 µM	1.06
KHOS-NP, 0.04115 µM	1.07
KHOS-NP, 0.1235 µM	1.07
KHOS-NP, 0.3704 µM	0.911
KHOS-NP, 1.111 µM	1.06
KHOS-NP, 3.333 µM	1.02
KHOS-NP, 10 µM	0.707
RD, 0.00017 µM	1.11
RD, 0.00051 µM	1.11
RD, 0.00152 µM	1.09
RD, 0.00457 µM	1.1
RD, 0.01372 µM	1.11
RD, 0.04115 µM	1.1
RD, 0.1235 µM	1.09
RD, 0.3704 µM	1.11
RD, 1.111 µM	1.12
RD, 3.333 µM	1.11
RD, 10 µM	1.11
RD-ES, 0.00017 µM	0.972
RD-ES, 0.00051 µM	0.988
RD-ES, 0.00152 µM	0.955
RD-ES, 0.00457 µM	0.983
RD-ES, 0.01372 µM	0.999
RD-ES, 0.04115 µM	1.02
RD-ES, 0.1235 µM	0.983
RD-ES, 0.3704 µM	1.01
RD-ES, 1.111 µM	0.994
RD-ES, 3.333 µM	0.975
RD-ES, 10 µM	0.537
SK-LMS-1, 0.00017 µM	1.07
SK-LMS-1, 0.00051 µM	1.08
SK-LMS-1, 0.00152 µM	1.08
SK-LMS-1, 0.00457 µM	1.09
SK-LMS-1, 0.01372 µM	1.11
SK-LMS-1, 0.04115 µM	1.09
SK-LMS-1, 0.1235 µM	1.09
SK-LMS-1, 0.3704 µM	1.09
SK-LMS-1, 1.111 µM	1.04
SK-LMS-1, 3.333 µM	1.05
SK-LMS-1, 10 µM	0.898
SW684, 0.00017 µM	1.15
SW684, 0.00051 µM	1.136
SW684, 0.00152 µM	1.14
SW684, 0.00457 µM	1.15
SW684, 0.01372 µM	1.2
SW684, 0.04115 µM	1.14
SW684, 0.1235 µM	1.11
SW684, 0.3704 µM	1.12
SW684, 1.111 µM	1.1
SW684, 3.333 µM	1.13
SW684, 10 µM	1.012
SW872, 0.00017 µM	0.995
SW872, 0.00051 µM	1
SW872, 0.00152 µM	1.02
SW872, 0.00457 µM	1.03
SW872, 0.01372 µM	1.03
SW872, 0.04115 µM	1.04
SW872, 0.1235 µM	1.06
SW872, 0.3704 µM	1.05
SW872, 1.111 µM	1.08
SW872, 3.333 µM	1.07
SW872, 10 µM	1.05
SW1353, 0.00017 µM	0.962
SW1353, 0.00051 µM	0.977
SW1353, 0.00152 µM	0.951
SW1353, 0.00457 µM	0.95
SW1353, 0.01372 µM	0.934
SW1353, 0.04115 µM	0.953
SW1353, 0.1235 µM	0.968
SW1353, 0.3704 µM	0.994
SW1353, 1.111 µM	0.986
SW1353, 3.333 µM	0.977
SW1353, 10 µM	0.964
SYO-1, 0.00017 µM	0.95
SYO-1, 0.00051 µM	0.947
SYO-1, 0.00152 µM	0.949
SYO-1, 0.00457 µM	0.94
SYO-1, 0.01372 µM	0.95
SYO-1, 0.04115 µM	0.965
SYO-1, 0.1235 µM	0.944
SYO-1, 0.3704 µM	0.921
SYO-1, 1.111 µM	0.886
SYO-1, 3.333 µM	0.828
SYO-1, 10 µM	0.5622
